Experiments:
[1] = test system: Prop. acnes L1014 ATCC 6919; test: MIC, agar dilution; format: cell-based, P. acnes; conditions: inocula 10^4 /10^5 CFU/spot, 48 h, 37° C., anaerobic gas mixture
Protocol: (§1) MIC for Propionibacterium aches, and Bacteroides fragilis are determined by agar dilution (inocula 10^4 /10^5 CFU/spot). MIC for other organisms are determined by microbroth dilution (inocula 10^4 to 10^5 CFU/ml). Incubation times are 18-24 h, except for Haemophilus influenzae, P. acnes, B. fragilis (48 h). All organisms are incubated at 37° C.; H. influenzae is incubated in a 5% CO2 atmosphere, anaerobes in an anaerobic gas mixture. Media used are: Iso-Sensitest broth (Oxoid) (Staphylococci, Streptococcus faecalis, Escherichia coli, Proteus vulgaris; brain heart infusion broth (Difco)+1% Supplement C (Difco) (H. influenzae); The minimal inhibitory concentrations (MIC, microgram/ml) for some microorganisms are reported below in Table VII.

Esch. coli L47 SKF 12140 = test: MIC, microbroth dilution; format: cell-based, Escherichia coli; conditions: inocula 10^4 to 10^5 CFU/ml, Iso-Sensitest broth, 18-24 h, 37° C.
Protocol: as §1

Staph. haemolyticus L602 = test: MIC, microbroth dilution; format: cell-based; conditions: inocula 10^4 to 10^5 CFU/ml, Iso-Sensitest broth, 18-24 h, 37° C.
Protocol: as §1

[2] = test system: Haemophilus Influenzae type B; test: MIC, microbroth dilution; format: cell-based; conditions: brain heart infusion broth +1% Supplement C, 48 h, 37° C., 5% CO2
Protocol: as §1

Staph. aureus L165 Tour = test: MIC, microbroth dilution; format: cell-based; conditions: inocula 10^4 to 10^5 CFU/ml, Iso-Sensitest broth, 18-24 h, 37° C.
Protocol: as §1

[3] = test system: Staph. epidermidis L147 ATCC 12228; test: MIC, microbroth dilution; format: cell-based; conditions: inocula 10^4 to 10^5 CFU/ml, Iso-Sensitest broth, 18-24 h, 37° C.
Protocol: as §1

[4] = test system: Strep. pneumoniae L44 UC41; test: MIC, microbroth dilution; format: cell-based; conditions: inocula 10^4 to 10^5 CFU/ml, 18-24 h, 37° C.
Protocol: as §1

[5] = test system: Bact. fragilis L1010 ATCC 23745; test: MIC, agar dilution; format: cell-based, Bacteroides fragilis; conditions: inocula 10^4 /10^5 CFU/spot, 48 h, 37° C., anaerobic gas mixture
Protocol: as §1

[6] = test system: Strep. faecalis L149 ATCC 7080; test: MIC, microbroth dilution; format: cell-based, Streptococcus faecalis; conditions: inocula 10^4 to 10^5 CFU/ml, Iso-Sensitest broth, 18-24 h, 37° C.
Protocol: as §1

Prot. vulgaris ATCC 881 = test: MIC, microbroth dilution; format: cell-based, Proteus vulgaris; conditions: inocula 10^4 to 10^5 CFU/ml, Iso-Sensitest broth, 18-24 h, 37° C.
Protocol: as §1

Compound	MIC [1] [microgram/ml]	MIC (Esch. coli L47 SKF 12140) [microgram/ml]	MIC (Staph. haemolyticus L602) [microgram/ml]	MIC [2] [microgram/ml]	MIC (Staph. aureus L165 Tour) [microgram/ml]	MIC [3] [microgram/ml]	MIC [4] [microgram/ml]	MIC [5] [microgram/ml]	MIC [6] [microgram/ml]	MIC (Prot. vulgaris ATCC 881) [microgram/ml]
CNC(=O)CC1NC(=O)c2nc(sc2COC)C(C(C)C)NC(=O)c2csc(n2)-c2ccc(-c3nc(C(=O)NCC(=O)O)cs3)nc2-c2csc(n2)-c2csc(n2)C(C(O)c2ccccc2)NC(=O)CNC(=O)c2nc1sc2C (stereo not shown) [Compound 1]	< 0.13	> 128	4	8	0.5	1	8	8	0.25	> 128
CNC(=O)CC1NC(=O)c2nc(sc2COC)C(C(C)C)NC(=O)c2csc(n2)-c2ccc(-c3nc(C(=O)NC(CCCN)C(=O)O)cs3)nc2-c2csc(n2)-c2csc(n2)C(C(O)c2ccccc2)NC(=O)CNC(=O)c2nc1sc2C.O=C(O)C(F)(F)F (stereo not shown) [Compound 2]	0.06	> 128	16	> 128	0.13	0.25	> 128	> 128	0.06	> 128
CNC(=O)CC1NC(=O)c2nc(sc2COC)C(C(C)C)NC(=O)c2csc(n2)-c2ccc(-c3nc(C(=O)NC(CC(C)C)C(=O)O)cs3)nc2-c2csc(n2)-c2csc(n2)C(C(O)c2ccccc2)NC(=O)CNC(=O)c2nc1sc2C (stereo not shown) [Compound 6]	< 0.13	> 128	1	32	< 0.13	1	2	> 128	< 0.13	> 128
CNC(=O)CC1NC(=O)c2nc(sc2COC)C(C(C)C)NC(=O)c2csc(n2)-c2ccc(-c3nc(C(=O)NC(Cc4ccccc4)C(=O)O)cs3)nc2-c2csc(n2)-c2csc(n2)C(C(O)c2ccccc2)NC(=O)CNC(=O)c2nc1sc2C (stereo not shown) [Compound 7]	< 0.13	> 128	4	128	0.25	0.5	4	> 128	> 0.13	> 128
CNC(=O)CC1NC(=O)c2nc(sc2COC)C(C(C)C)NC(=O)c2csc(n2)-c2ccc(-c3nc(C(=O)NC(CCSC)C(=O)O)cs3)nc2-c2csc(n2)-c2csc(n2)C(C(O)c2ccccc2)NC(=O)CNC(=O)c2nc1sc2C (stereo not shown) [Compound 8]	< 0.13	> 128	2	64	0.25	2	4	32	0.25	> 128
CNC(=O)CC1NC(=O)c2nc(sc2COC)C(C(C)C)NC(=O)c2csc(n2)-c2ccc(-c3nc(C(=O)NCC(=O)N4CCCC4C(N)=O)cs3)nc2-c2csc(n2)-c2csc(n2)C(C(O)c2ccccc2)NC(=O)CNC(=O)c2nc1sc2C (stereo not shown) [Compound 14]	0.03	> 128	0.25	> 128	0.06	0.13	> 128	> 128	0.06	> 128
CNC(=O)CC1NC(=O)c2nc(sc2COC)C(C(C)C)NC(=O)c2csc(n2)-c2ccc(-c3nc(C(=O)NCCCC(=O)O)cs3)nc2-c2csc(n2)-c2csc(n2)C(C(O)c2ccccc2)NC(=O)CNC(=O)c2nc1sc2C (stereo not shown) [Compound 18]	0.016	> 128	1	2	0.25	0.25	1	2	0.13	> 128
CNC(=O)CC1NC(=O)c2nc(sc2COC)C(C(C)C)NC(=O)c2csc(n2)-c2ccc(-c3nc(C(=O)NCCCCCC(=O)O)cs3)nc2-c2csc(n2)-c2csc(n2)C(C(O)c2ccccc2)NC(=O)CNC(=O)c2nc1sc2C (stereo not shown) [Compound 19]	0.008	> 128	0.25	2	0.06	0.06	0.25	4	0.06	> 128
CNC(=O)CC1NC(=O)c2nc(sc2COC)C(C(C)C)NC(=O)c2csc(n2)-c2ccc(-c3nc(C(=O)NCCCCCCCC(=O)O)cs3)nc2-c2csc(n2)-c2csc(n2)C(C(O)c2ccccc2)NC(=O)CNC(=O)c2nc1sc2C (stereo not shown) [Compound 20]	0.03	> 128	0.25	> 128	0.25	0.25	2	> 128	< 0.13	> 128
CNC(=O)CC1NC(=O)c2nc(sc2COC)C(C(C)C)NC(=O)c2csc(n2)-c2ccc(-c3nc(C(=O)NCCN(C)C)cs3)nc2-c2csc(n2)-c2csc(n2)C(C(O)c2ccccc2)NC(=O)CNC(=O)c2nc1sc2C (stereo not shown) [Compound 32]	0.13	> 128	0.5	> 128	0.5	0.5	1	> 128	0.25	> 128
CNC(=O)CC1NC(=O)c2nc(sc2COC)C(C(C)C)NC(=O)c2csc(n2)-c2ccc(-c3nc(C(N)=O)cs3)nc2-c2csc(n2)-c2csc(n2)C(C(O)c2ccccc2)NC(=O)CNC(=O)c2nc1sc2C (stereo not shown) [Compound 35]	0.004	> 128	0.5	> 128	0.13	0.13	> 128	> 128	0.06	> 128
CNC(=O)CC1NC(=O)c2nc(sc2COC)C(C(C)C)NC(=O)c2csc(n2)-c2ccc(-c3nc(C(=O)NCCCN)cs3)nc2-c2csc(n2)-c2csc(n2)C(C(O)c2ccccc2)NC(=O)CNC(=O)c2nc1sc2C.O=C(O)C(F)(F)F (stereo not shown) [Compound 36]	0.06	> 128	0.13	> 128	0.13	0.13	4	> 128	0.13	> 128
CNC(=O)CC1NC(=O)c2nc(sc2COC)C(C(C)C)NC(=O)c2csc(n2)-c2ccc(-c3nc(C(=O)NCC=O)cs3)nc2-c2csc(n2)-c2csc(n2)C(C(O)c2ccccc2)NC(=O)CNC(=O)c2nc1sc2C (stereo not shown) [Compound 37]	0.004	> 128	0.13	> 128	0.03	0.06	> 128	> 128	0.06	> 128
CNC(=O)CC1NC(=O)c2nc(sc2COC)C(C(C)C)NC(=O)c2csc(n2)-c2ccc(-c3nc(C(=O)NCCCC=CC(=O)O)cs3)nc2-c2csc(n2)-c2csc(n2)C(C(O)c2ccccc2)NC(=O)CNC(=O)c2nc1sc2C (stereo not shown) [Compound 40]	–	> 128	1	1	0.25	0.25	1	4	≤ 0.13	> 128
